Assay results published in the CATMoS acute toxicity set (Mansouri et al. 2021).

Test: GHS categories as the set defines them, by LD50: 1 up to 5, 2 up to 50, 3 up to 300, 4 up to 2000, 5 above 2000 mg/kg
Details: rat; in vivo; po

Row | SMILES | GHS category
1 | Nc1c(/N=N/c2ccc(S(=O)(=O)CCOS(=O)(=O)O)cc2)c(S(=O)(=O)O)cc2cc(S(=O)(=O)O)c(/N=N/c3ccc(S(=O)(=O)CCOS(=O)(=O)O)cc3)c(O)c12 | 5
2 | CO[C@]12CC[C@@]3(C[C@@H]1[C@](C)(O)C(C)(C)C)[C@H]1Cc4ccc(O)c5c4[C@@]3(CCN1CC1CC1)[C@H]2O5 | 4
3 | CC1(C)CC[C@@]2(C(=O)O)CC[C@@]3(C)C(=CC[C@H]4[C@]5(C)CC[C@@H](O)C(C)(C)[C@H]5CC[C@@]43C)[C@H]2C1 (racemic) | 5
4 | CCCCCCCC(=O)N(CCO)CCO | 5
5 | CCCCN(c1nc(NCCCN(CCN(CCCNc2nc(N(CCCC)C3CC(C)(C)N(C)C(C)(C)C3)nc(N(CCCC)C3CC(C)(C)N(C)C(C)(C)C3)n2)c2nc(N(CCCC)C3CC(C)(C)N(C)C(C)(C)C3)nc(N(CCCC)C3CC(C)(C)N(C)C(C)(C)C3)n2)c2nc(N(CCCC)C3CC(C)(C)N(C)C(C)(C)C3)nc(N(CCCC)C3CC(C)(C)N(C)C(C)(C)C3)n2)nc(N(CCCC)C2CC(C)(C)N(C)C(C)(C)C2)n1)C1CC(C)(C)N(C)C(C)(C)C1 | 5
6 | CCOC[C@H]1CO[C@@](Cn2ccnc2)(c2cc3cc(Cl)cc(Cl)c3o2)O1 | 4
7 | CN1C(=O)C(C)(C)Oc2cc(C(=O)C=Cc3ccc(Cl)cc3)ccc21 | 5
8 | Cn1c(CCCC(=O)O)nc2cc(N(CCCl)CCCl)ccc21 | 3
9 | CCCCCCCCCCCc1ccccc1 | 5
10 | COc1cc2nc(N3CCCC(N(C)Cc4ccc5c(c4)OCO5)C3)nc(N)c2cc1OC (stereo not given) | 4
11 | O=C(O)c1[nH]n(-c2ccc(S(=O)(=O)O)cc2)c(=O)c1/N=N/c1ccc(S(=O)(=O)O)cc1 | 5
12 | COC(=O)c1ccccc1S(=O)(=O)NC(=O)N(C)c1nc(C)nc(OC)n1 | 5
13 | Cc1nnc(SCC2=C(C(=O)O)N3C(=O)[C@@H](NC(=O)Cn4cnnn4)[C@H]3SC2)s1 | 5
14 | O=S(=O)(O)Oc1ccc(C(c2ccc(O)cc2)c2ccccn2)cc1 (stereo not given) | 5
15 | CC(C)(C)c1ccc(C2=C3C(=O)NC(c4ccc(C(C)(C)C)cc4)=C3C(=O)N2)cc1 | 5
16 | CC(COc1ccc(Oc2ccccc2)cc1)Oc1ccccn1 (stereo not given) | 5
17 | CC[C@H]1OC(=O)C[C@@H](O)[C@H](C)[C@@H](O[C@@H]2O[C@H](C)[C@@H](O[C@H]3C[C@@](C)(O)[C@@H](O)[C@H](C)O3)[C@H](N(C)C)[C@H]2O)[C@@H](CC=O)C[C@@H](C)C(=O)C=CC(C)=C[C@@H]1CO[C@@H]1O[C@H](C)[C@@H](O)[C@@H](OC)[C@H]1OC | 5
18 | CCOCOC1CCCCCCCCCCC1 | 5

Row | SMILES | GHS category
19 | CC1CC(OC(=O)C(C)Oc2ccc(F)cc2)CC(C)(C)C1 (stereo not given) | 5
20 | CC/C(=C(/c1ccc(OCCN(C)C)cc1)c1cccc(O)c1)c1ccccc1 | 5
21 | CCOC(=O)C(=O)Nc1cc(SCCOC(=O)C(=O)OCC)nc(C)n1 | 4
22 | CCC1=NN(C(=O)NC(=O)c2ccc(Cl)cc2)C(C)(CC)C1 (stereo not given) | 5
23 | CCC(=O)OC(OC(C(=O)O)[P+](=O)CCCCc1ccccc1)C(C)C (stereo not given) | 5
24 | OC(Cc1ccccc1Cl)(Cn1[nH]cnc1=S)C1(Cl)CC1 (stereo not given) | 5
25 | OCC(O)COC1CCCCC1 (stereo not given) | 5
26 | C#CCNC(=O)Oc1cccc2c1OC(C)(C)O2 | 3
27 | Cc1ncc(CSSCc2cnc(C)c(O)c2CO)c(CO)c1O | 5
28 | CCC1OC(=O)C(C)C(OC2CC(C)(OC)C(O)C(C)O2)C(C)C(OC2OC(C)CC(N(C)C)C2O)C(C)(O)CC(C)C(=O)C(C)C(O)C1(C)O (stereo not given) | 5
29 | Nc1cc(C(=O)O)ccc1Cl | 5
30 | COc1ccc2c(c1)CCN(c1ccccc1)C2c1ccccc1 (stereo not given) | 4
31 | COc1ccc(C(=O)c2cccc(C)c2)cc1C | 5
32 | Clc1ccc(CNC2=NCCS2)cc1 | 3
33 | CCOC(=O)CCSc1cc(NC(=O)C(=O)OCC)ncn1 | 4
34 | CC(C)c1cc(C(C)C)c(N=C=O)c(C(C)C)c1N=C=O | 5
35 | COc1cc(C(=O)OCCCNCCC(c2ccccc2)c2ccccc2)cc(OC)c1OC | 5
